Results taken from patent US8119563B2, “N-substituted azacycles” (FMC Corporation, priority 2003, dated 2012).

System: tobacco budworm (Heliothis virescens [Fabricius])
Assay: surface-treated diet test, insecticidal activity against tobacco budworm
Assay type: in vivo
Details: 0.25 millimoles of candidate insecticide on the surface of the diet, second instar larvae, five-day exposure; for Percent Mortality: compared to total number of insects infested; for Percent Growth Inhibition: inhibition of insect weight relative to untreated controls
Method: Candidate insecticides were evaluated for activity against the tobacco budworm (Heliothis virescens [Fabricius]) in a surface-treated diet test.
In this test one mL of molten (65-70° C.) wheat germ-based artificial diet was pipetted into each well of a four by six (24 well) multi-well plate (ID# 430345-15.5 mm dia.×17.6 mm deep; Corning Costar Corp., One Alewife Center, Cambridge, Mass. 02140). The diet was allowed to cool to ambient temperature before treatment with candidate insecticide.
For a determination of insecticidal activity, solutions of the candidate insecticides were prepared for testing using a Packard 204DT Multiprobe® Robotic System (Packard Instrument Company, 800 Research Parkway, Meriden, Conn. 06450), in which the robot first diluted a standard 50 millimolar DMSO solution of candidate insecticide with a 1:1 water/acetone solution (V/V) in a ratio of 1:7 stock solution to water/acetone. The robot subsequently pipetted 40 microliters of the so-prepared solution onto the surface of the diet in each of three wells in the 24 multi-well plate. The process was repeated with solutions of seven other candidate insecticides. Once treated, the contents of the multi-well plate were allowed to dry, leaving 0.25 millimoles of candidate insecticide on the surface of the diet, or a concentration of 0.25 millimolar. Appropriate untreated controls containing only DMSO on the diet surface were also included in this test.
For evaluations of the insecticidal activity of a candidate insecticide at varying rates of application, the test was established as described above using sub-multiples of the standard 50 millimolar DMSO solution of candidate insecticide. For example, the standard 50 millimolar solution was diluted by the robot with DMSO to give 5, 0.5, 0.05, 0.005, 0.0005 millimolar, or more dilute solutions of the candidate insecticide. In these evaluations there were six replicates of each rate of application placed on the surface of the diet in the 24 multi-well plate, for a total of four rates of application of candidate insecticide in each plate.
In each well of the test plate was placed one second instar tobacco budworm larvea, each weighing approximately five milligrams. After the larvae were placed in each well, the plate was sealed with clear polyfilm adhesive tape. The tape over each well was perforated to ensure an adequate air supply. The plates were then held in a growth chamber at 25° C. and 60% relative humidity for five days (light 14 hours/day).
After the five-day exposure period insecticidal activity for each rate of application of candidate insecticide was assessed as percent inhibition of insect weight relative to the weight of insects from untreated controls, and percent mortality when compared to the total number of insects infested.
The test compounds of formula I are identified by numbers that correspond to those in Table 1.

SMILES | Percent Mortality [%] | Percent Growth Inhibition [%]
FC(F)(F)c1ccc(C(c2ccc(C(F)(F)F)cc2)C2(F)CCN(Cc3ccc(Oc4ncccn4)cc3)CC2)cc1 [Compound 194] | 100 | 100
[O-][N+]1(Cc2ccc(Oc3ncccc3Cl)cc2)CCC(O)(C(c2ccc(OC(F)(F)F)cc2)c2ccc(OC(F)(F)F)cc2)CC1 (centres unmarked) [Compound 399] | 100 | 100
COCCOCCON=Cc1ccc(CN2CCC(O)(C(c3ccc(OC(F)(F)F)cc3)c3ccc(OC(F)(F)F)cc3)CC2)cc1 [Compound 258] | 100 | 100
CCOCON=Cc1ccc(CN2CCC(O)(C(c3ccc(OC(F)(F)F)cc3)c3ccc(OC(F)(F)F)cc3)CC2)cc1 [Compound 259] | 100 | 100
OC1(C(c2ccc(F)cc2)c2ccc(OC(F)(F)F)cc2)CCN(Cc2ccc(Oc3ccccn3)cc2)CC1 (racemic) [Compound 268] | 100 | 100
Cc1ccc(Oc2ccc(C[N+]3([O-])CCC(O)(C(c4ccc(OC(F)(F)F)cc4)c4ccc(OC(F)(F)F)cc4)CC3)cc2)nn1 (centres unmarked) [Compound 413] | 100 | 100
CCCCC(CC)C(=O)[O-].OC1(C(c2ccc(OC(F)(F)F)cc2)c2ccc(OC(F)(F)F)cc2)CC[N+](O)(Cc2ccc(Oc3ccccn3)cc2)CC1 (centres unmarked) [Compound 499] | 100 | 100
CCCCCCCC(=O)[O-].OC1(C(c2ccc(OC(F)(F)F)cc2)c2ccc(OC(F)(F)F)cc2)CC[N+](O)(Cc2ccc(Oc3ccccn3)cc2)CC1 (centres unmarked) [Compound 517] | 100 | 100
CCOC(C)C(=O)[O-].CCON=Cc1ccc(C[N+]2(O)CCC(O)(C(c3ccc(OC(F)(F)F)cc3)c3ccc(OC(F)(F)F)cc3)CC2)cc1 (centres unmarked) [Compound 484] | 100 | 100
OC1(C(c2ccc(C(F)(F)F)cc2)c2ccc(C(F)(F)F)cc2)CCN(Cc2ccc(Oc3ccccn3)cc2)CC1 [Compound 22] | 100 | 100
CC(C)=CCCC(C)CC(=O)[O-].OC1(C(c2ccc(OC(F)(F)F)cc2)c2ccc(OC(F)(F)F)cc2)CC[N+](O)(Cc2ccc(Oc3ccccn3)cc2)CC1 (centres unmarked) [Compound 509] | 100 | 100
CCn1nnc(-c2ccc(CN3CCC(O)(C(c4ccc(Cl)cc4)c4ccc(Cl)cc4)CC3)cc2)n1 [Compound 23] | 100 | 100
OC1(C(c2ccc(OC(F)(F)F)cc2)c2ccc(OC(F)(F)F)cc2)CCN(CCOc2ccc(Cl)cc2)CC1 [Compound 475] | 100 | 100
O=C(NC1CC1)Oc1ccc(CN2CCC(O)(C(c3ccc(OC(F)(F)F)cc3)c3ccc(OC(F)(F)F)cc3)CC2)cc1 [Compound 298] | 100 | 100
[O-][N+]1(Cc2ccc(-c3ncccc3Cl)cc2)CCC(O)(C(c2ccc(OC(F)(F)F)cc2)c2ccc(OC(F)(F)F)cc2)CC1 (centres unmarked) [Compound 411] | 100 | 100
COc1ccc(Oc2ccc(CN3CCC(O)(C(c4ccc(OC(F)(F)F)cc4)c4ccc(OC(F)(F)F)cc4)CC3)cc2)nn1 [Compound 274] | 100 | 100
CC1(C)COC(c2ccc(C[N+]3([O-])CCC(O)(C(c4ccc(OC(F)(F)F)cc4)c4ccc(OC(F)(F)F)cc4)CC3)cc2)OC1 (centres unmarked) [Compound 358] | 100 | 100
OC1(C(c2ccc(OC(F)(F)F)cc2)c2ccc(OC(F)(F)F)cc2)CCN(Cc2ccc(OCC=C(Cl)Cl)cc2)CC1 [Compound 293] | 100 | 100
CC(C)Oc1ccc(CN2CCC(O)(C(c3ccc(C(F)(F)F)cc3)c3ccc(C(F)(F)F)cc3)CC2)cc1 [Compound 303] | 100 | 100
